Data on one molecule can be found in patent US20220249637A1, “COMBINATION THERAPY OF A CELL-MEDIATED CYTOTOXIC THERAPY AND AN INHIBITOR OF A PROSURVIVAL BCL2 FAMILY PROTEIN” (Juno Therapeutics, Inc., priority 2019, published 2022).

One data set relates to CD3+CAR+ T cells. In words: Co-culture of tumor cells and CAR T cells, venetoclax added at initiation or 24, 48 or 72 hours later (Example 9): CAR T cell number. Type of data set: cell-based. The protocol:
FIGS. 14A and 14B show the number of CD3+CAR+ T cells and RL target cells, respectively, following a 6-day co-culture. Various concentrations of an exemplary BCL2 inhibitor were provided in the co-culture at its initiation, or 24, 48, or 72 hours after the initiation of co-culture.
Thus, in some cases, the cytotoic effects of a BCL2 inhibitor, e.g. venetoclax, and a T cell therapy (e.g. CAR T cells) may be synergistic to result in cell death of cells otherwise resistant to treatment with the T cell therapy alone. In some cases, administration of the inhibitor, e.g. venetoclax, may sensitize otherwise resistant cancer cells to CAR T cell-mediated killing when it is administered within or at about 7 days after administration of the cell therapy.

The subject of data set [1] is cells of the cell therapy (CAR-T cells). Kind of data set: Activation induced cell death of cells of the cell therapy in presence of inhibitor. As to conditions: particularly if given at too high of a dosage. Type of data set: cell-based. From the text: In some aspects, the provided methods, combinations and uses provide for or achieve improved or more durable responses or efficacy as compared to alternative methods, such as alternative methods involving only the administration of the immunotherapy or cell therapy but not in combination with an inhibitor of a prosurvival BCL2 family protein (e.g. venetoclax). In some embodiments, the methods are advantageous by virtue of administering an inhibitor of a prosurvival BCL2 family protein (e.g. venetoclax) shortly before (e.g. within 7 days) or concurrently with administration of an immunotherapy or a cell therapy (e.g. T cell therapy, such as CAR-T cell), thereby sensitizing the tumor and/or making the tumor less resistant to, or more susceptible to, treatment with the immunotherapy or cell therapy. […] However, delaying administration of the inhibitor of a prosurvival BCL2 family protein (e.g. venetoclax) until a time after AICD is at or has reached it peak or been reduced after having peaked can avoid detrimental effects on the cells of the cell therapy while substantially improving, e.g. synergistically increasing, T cell-mediated killing of the tumor by cells of the cell therapy (e.g. CAR-T cells).

Data set [2] concerns anti-CD19 CAR T cells. Kind of data set: CAR T cell viability, ATP luciferin reporter assay after 96 hours anti-idiotypic antibody stimulation. Type of data set: cell-based, human. The protocol:
Anti-CD19 CAR-expressing T cell compositions were generated from three human adult donors, substantially as described in Example 1. Anti-CD19 CAR T cells were stimulated for 96 hours with an anti-idiotypic antibody in the presence of an exemplary BCL2 inhibitor venetoclax solubilized in dimethylsulfoxide (DMSO). Control anti-CD19 CAR T cells were stimulated for 96 hours with the anti-idiopathic antibody in the presence of an equal amount of DMSO. Specifically, anti-CD19 CAR-expressing cells were added to the wells of a 96-well plate that had been pre-coated with an anti-idiotypic antibody specific to the scFv of the anti-CD19 CAR-expressing T cells described in Example 1 at a concentration of 30 μg/ml. The cells were cultured in the presence of 5% human serum at 37° C. and 5% CO2. After 96 hours, cells were lysed and ATP from viable cells was detected via a luciferin reporter assay and reported as relative luminescence units. Venetoclax-treated CAR T cell counts were assessed and normalized to DMSO control CAR T cell counts.
In general terms: Reporter assays use an easily measured gene product as a stand-in for the process of interest.

For the next data set, the system named is RL spheroids. In words: RL spheroids co-cultured with chronically stimulated anti-CD19 CAR T cells. Type of data set: cell-based. As to conditions: 8 days. The protocol: Anti-CD19 CAR-expressing T cells, generated from healthy donors as described above, were chronically stimulated under conditions to exhaust T cell activity by incubation for 8 days with beads coated in anti-idiotypic (anti-ID) antibody directed against the CAR. After the 8 days of chronic stimulation, the anti-CD19 CAR-expressing T cells were harvested and subsequently co-cultured with RL cells engineered to express NLR for 8 days at an E:T ratio of 1:1. As a control, RL cells were cultured in the absence of anti-CD19 CAR T cells. Subtherapeutic concentrations of the exemplary BCL2 inhibitor venetoclax (0.01 μM or 0.1 μM) were added to the cultures, and the number of cells was assessed over time (FIG. 6A).
In another experiment, spheroids were generated from CD19-expressing RL cells as previously described, and co-cultured for 8 days with anti-CD19 CAR T cells at an E:T ratio of 1:1 and increasing concentrations of venetoclax (0.01 μM, 0.1 μM, or 1.0 μM), or with only corresponding concentrations of venetoclax. As before, the anti-CD19 CAR T cells were chronically stimulated with anti-ID antibody-coated beads prior to co-culture with the RL spheroids. […] Overall, the size of the RL spheroids cultured with both anti-CD19 CAR T cells and venetoclax decreased more, and with lower concentrations of venetoclax, compared to that of RL spheroids cultured with just venetoclax.

For data set [3], the system named is anti-CD19 CAR T cells. In words: Caspase 3 expression and expansion of CAR T cells incubated with anti-ID beads and venetoclax. Type of data set: cell-based. As to conditions: 0.01, 0.1, 1 or 10 μM, 48 hours post-stimulation. The protocol:
Anti-CD19 CAR-expressing T cell compositions from healthy donors were incubated with anti-ID antibody-coated beads at 37° C. in the presence of increasing concentrations of venetoclax (0.01 μM, 0.1 μM, 1 μM, or 10 μM) for 48 hours. As a control, CART cells were incubated under the same conditions, but without venetoclax. Caspase 3 expression, viability, and expansion kinetics of the CAR T cells were subsequently assessed.

Data set [4] has as its system JeKo-1 mantle cell lymphoma cells. Kind of data set: JeKo-1 murine model of mantle cell lymphoma. Type of data set: in vivo, NOD scid gamma (NSG) mice. The protocol: NOD scid gamma (NSG) mice were injected intravenously with 2×10^6 JeKo-1 mantle cell lymphoma cells (Day −7) and treated daily with 12.5, 25, 50, or 100 mg/kg of the exemplary BCL2 inhibitor venetoclax for 21 days (Day 0 through Day 21). Tumor burden (FIG. 11A) and body weight (FIG. 11B) were assessed over the course of treatment.
To determine the effects of venetoclax on anti-CD19 CAR T cells in a venetoclax-resistant murine model of MCL, NSG mice were injected intravenously with 2×10^6 JeKo-1 cells on Day −7, and then treated with intravenous infusions of 1×10^6 anti-CD19 CAR T cells, generated substantially as described in previous Example, on Day −1 and Day 0. Venetoclax was administered daily for 21 days (Day 0 to Day 21) at 6.25, 25, or 100 mg/kg. As a control, a subset of mice were only treated with venetoclax. Tumor burden (FIG. 12A), survival (FIGS. 12B and 12C), and CAR T cell number (FIG. 13) were assessed.

A further data set has as its system human plasma proteins. As to conditions: cited from earlier work.

Take `CC1(C)CCC(CN2CCN(c3ccc(C(=O)NS(=O)(=O)c4ccc(NCC5CCOCC5)c([N+](=O)[O-])c4)c(Oc4cnc5[nH]ccc5c4)c3)CC2)=C(c2ccc(Cl)cc2)C1` [venetoclax]: the “deleterious effects on CAR T cells” value in the data set on CD3+CAR+ T cells (administered when activation-induced cell death of CAR T cells has peaked (e.g. 2-7 days after CAR T cells), Example 9) is reported as “deleterious effects on CAR T cells not observed”. In addition, the “deleterious effects on the CAR T cells” value in the data set on CD3+CAR+ T cells (therapeutic dose administered 48 or 72 hours after initiation of co-culture) was “without deleterious effects on the CAR T cells being observed”. Moreover, the “CAR-T cell numbers and activity” value in the data set with CD3+CAR+ T cells (therapeutic dose given concurrently or at 24 hours after initiation of co-culture) is “reduced CAR-T cell numbers and activity”. Moreover, the “activation induced cell death (AICD) of cells of the cell therapy” value in data set [1] is on record as “can exacerbate activation induced cell death (AICD)”. Half-maximal inhibition in the data set on anti-CD19 CAR T cells [2] (T-cell, average among three donors, 5% human serum) (IC50) required 7.9 µM. Also, the “percentage of viable anti-CD19 CAR-expressing T cells” value in the data set with anti-CD19 CAR T cells [2] (increasing doses) is “decreased with increasing doses of venetoclax”. The tumor size result was “decreases in tumor size were only observed with 1 μM venetoclax” in the data set with RL spheroids (venetoclax 0.01, 0.1 or 1.0 μM in the absence of CAR T cells) and “greater decreases in tumor size were seen with increasing concentrations of venetoclax” in the data set with RL spheroids (with chronically stimulated CAR T cells E:T 1:1, venetoclax 0.01, 0.1 or 1.0 μM). Also, the “percentage of CAR+ T cells expressing caspase 3” value in the data set on anti-CD19 CAR T cells [3] is on record as “larger percentages of CAR+ T cells expressing caspase 3”. Besides, the tumor volume result in data set [4] (venetoclax 6.25, 25 or 100 mg/kg daily in combination with CAR T cells, vs untreated and venetoclax-only mice) is listed as “reduced tumor volume at all measured time points”. Besides, the tumor burden entry in data set [4] (venetoclax alone, 6.25, 25 or 100 mg/kg daily for 21 days) was “increased similarly in untreated mice and mice treated with venetoclax alone”. Also, the “tumor burden (bioluminescence imaging)” value in data set [4] (venetoclax alone, 12.5, 25, 50 or 100 mg/kg daily for 21 days) is listed as “resistant to treatment with venetoclax alone, regardless of dose level”. Moreover, the plasma protein binding entry in the data set with human plasma proteins is “can bind human plasma proteins”.

As usually defined, the IC50 is the point on the concentration scale where inhibition reaches its midpoint.
